Data from publication PMC11180795 (Frontiers in Pharmacology, 2024).

What was measured:
[1] = Cytotoxicity MTT assay on RAW 264.7 cells; format: cell-based, Murine; conditions: mouse, RAW 264.7 macrophage cells, 48 h incubation, read-out: IC50, cytotoxic effect on RAW264.7 cells
Description: Murine macrophage RAW 264.7 cell line obtained from the American Type Culture Collection (Rockville, MD, United States) was maintained in DMEM supplemented with 10% fetal calf serum (FCS) and 1% penicillin/streptomycin/fungizone (PSF) under standard cell culture conditions at 37°C and 5% CO2 in a humidified environment.
The cytotoxic effect of compounds on RAW 264.7 cells was assessed using the 3-(4, 5-dimethylthiazol-2-yl)-2, 5-diphenyl tetrazolium bromide (MTT) assay as established by Mosmann ([Mosmann, 1983]) with slight modifications. Briefly, cells were seeded at a density of 1 × 10^5 cells/mL (100 µL) in 96-well microtitre plates and incubated at 37°C and 5% CO2 in a humidified environment. After 24 h incubation, 100 µL of compounds (at concentration ranged from to 250 μM–1.95 µM) were added to the wells containing cells and further incubated for 48 h in a CO2 incubator. A suitable control (untreated cells) was included and doxorubicin was used as a positive reference. Thereafter, the medium in each well was aspirated from the cells, which were then washed with PBS, and finally fresh medium (200 µL) was added to each well. Then, 30 µL of MTT (5 mg/mL in PBS) was added to each well and the plates were incubated at 37°C for 4 h. The medium was aspirated from the wells and DMSO was added to solubilize the formed formazan crystals. The absorbance was read at 570 nm (SpectraMax 190, Molecular devices). The percentage of cell inhibition was calculated with reference to the control (untreated cells taken as 100% viability). Then, the IC50 values of plant compounds showing more than 50% cell growth inhibition were calculated by plotting the percentage inhibition against the concentration.

[2] = tested on: NO production in LPS-activated RAW 264.7 macrophages; test: Inhibition of nitric oxide (NO) production in LPS-activated RAW 264.7 macrophages (Griess reagent); format: cell-based, Murine; conditions: for amount of NO produced: compound at 25 µM, LPS 1 μg/mL, 24 h, untreated and stimulated control 6.08 µM
Description: Murine macrophage RAW 264.7 cell line obtained from the American Type Culture Collection (Rockville, MD, United States) was maintained in DMEM supplemented with 10% fetal calf serum (FCS) and 1% penicillin/streptomycin/fungizone (PSF) under standard cell culture conditions at 37°C and 5% CO2 in a humidified environment. The RAW 264.7 macrophage cells were seeded in 96 well-microtitre plates (2 × 10^5 cells/mL). They were activated by incubation in a medium containing 1 μg/mL LPS alone (control) or lipopolysaccharide, and compounds at concentration of 3.12 µM, 6.25 µM, 12.5 µM and 25 µM dissolved in DMSO. […] After 24h, the amount of nitric oxide released from macrophages was determined using the Griess reagent as previously described ([Dzoyem and Eloff, 2015]).

IFN-γ = test: Th1/Th2 cytokine measurement (Cytometric Bead Array) in LPS-stimulated Raw 264.7 cells, IFN-γ; format: cell-based, Murine; conditions: compound at 20 µM; for effect on IFN-γ production (in words): vs stimulated and untreated control
Description: (§1) Raw 264.7 cells were seeded at 2 × 10^5 cells/mL in a 48-well microplate and allowed to adhere for 24 h, then treated with LPS 0.1 μg/mL and with compounds (1), (5) and (6) at 20 µM. Untreated cells and indomethacin (10 µM) were used as controls. After 24 h of incubation, the supernatant was collected and the amount of pro-inflammatory Th1 cytokines (IFN-γ, TNF-α, and IL-2) and anti-inflammatory Th2 cytokines (IL-4, IL-6, and IL-10) released measured. The experiment was performed according to the manufacturer’s instructions using BD™ Cytometric Bead Array (CBA) […] Th1/Th2 Cytokine Kit (BD-Biosciences), and data were acquired on a BD LSR Fortessa™ cell analyzer flow cytometer.

IL-4 = test: Th1/Th2 cytokine measurement (Cytometric Bead Array) in LPS-stimulated Raw 264.7 cells, IL-4; format: cell-based, Murine; conditions: compound at 20 µM, LPS 0.1 μg/mL, 24 h; stimulated untreated control 1.01 pg/mL
Description: as §1

IL-10 = test: Th1/Th2 cytokine measurement (Cytometric Bead Array) in LPS-stimulated Raw 264.7 cells, IL-10; format: cell-based, Murine; conditions: compound at 20 µM, LPS 0.1 μg/mL, 24 h; stimulated untreated control 0.88 pg/mL
Description: as §1

IL-2 = test: Th1/Th2 cytokine measurement (Cytometric Bead Array) in LPS-stimulated Raw 264.7 cells, IL-2; format: cell-based, Murine; conditions: compound at 20 µM, vs stimulated and untreated control
Description: as §1

SMILES	IC50 at 48 h [1] [µM]	inhibitory effect on NO production at the highest concentration (in words) ([2]; 25 µM, LPS-stimulated RAW 264.7)	IFN-γ level (IFN-γ; LPS 0.1 μg/mL, 24 h, stimulated untreated control 0.84 pg/mL) [pg/mL]	IL-4 level (IL-4) [pg/mL]	IL-10 level (IL-10) [pg/mL]	amount of NO produced [2] [µM]	effect on IFN-γ production (in words) (IFN-γ)	effect on IL-2 production (in words) (IL-2)	melting point [°C]
CC(C)=CCc1c2c(c3oc4c(O)cccc4c(=O)c3c1O)C=CC(C)(C)O2 [Compound 1, Ananixanthone]	> 100	remarkable inhibitory effect	0.43	1.23	0.971				
CC(C)=CCC/C(C)=C/C[C@]12C[C@@H](CC=C(C)C)C(C)(C)[C@](C/C=C(\C)CCC=C(C)C)(C(=O)C(C(=O)c3ccc(O)c(O)c3)=C1O)C2=O [Compound 5, Guttiferone O]	64.5			2.25	2.05	0.3	significantly reduces	significantly reduces	103
CC(C)=CCC/C(C)=C/C[C@]12C[C@@H](CC=C(C)C)C(C)(C)[C@](CC=C(C)C)(C(=O)C(C(=O)c3ccc(O)c(O)c3)=C1O)C2=O [Compound 6, Guttiferone M]	61.2			0.94	1.77	0.54	moderate decrease	limited effect	82
